Source: ChEMBL document CHEMBL1146541, “New cytotoxic indolic metabolites from a marine Streptomyces” (2003)
Activity calls are given as the source filed them.

Experiments:
LNCaP = experiment: Cytotoxicity against human LNCAP cells; format: functional, cell-based
K562 = experiment: Cytotoxicity against human K562 cells; format: functional
LoVo [1] = experiment: Cytotoxicity against doxorubicin-resistant human LoVo cells; format: functional, cell-based
LoVo [2] = experiment: Cytotoxicity against human LoVo cells; format: functional, cell-based
PANC-1 = experiment: Cytotoxicity against human PANC1 cells; format: functional, cell-based
HMEC-1 = experiment: Cytotoxicity against human HMEC1 cells; format: functional, cell-based

Measured: Activity

CC(C)=CCc1ccc2c(CC#N)c[nH]c2c1
inactive: LNCaP | K562 | LoVo [1] | LoVo [2] | PANC-1 | HMEC-1
